Experimental data taken from patent US20240218022A1, “ANTI-VISTA MACROCYCLIC PEPTIDES AND COMPOSITIONS” (BRISTOL-MYERS SQUIBB COMPANY, priority 2022, published 2024).
pIC50: −log10 of the molar value. Positions of bridges follow the written chain, without caps; N, C: chain ends. Non-standard residues stand in square brackets, D forms with d. Residues, ends and D or L forms follow the SMILES beside them. 2Nal = N[C@@H](Cc1ccc2ccccc2c1)C(=O)O; Ahp(2) = CCCCC[C@H](N)C(=O)O; NMeNle = CCCC[C@H](NC)C(=O)O; NHexGly = CCCCCCNCC(=O)O; NMeA = CN[C@@H](C)C(=O)O; Nle = CCCC[C@H](N)C(=O)O; Orn = NCCC[C@H](N)C(=O)O; Dab = NCC[C@H](N)C(=O)O; Dap = NC[C@H](N)C(=O)O

Target: T1, mouse VISTA (mVISTA) (Mus musculus, UniProt Q9D659)
T1 construct: expressed in transfected cells; host or cells: Human embryonic kidney 293T cells
T1 sequence (Q9D659 33-308): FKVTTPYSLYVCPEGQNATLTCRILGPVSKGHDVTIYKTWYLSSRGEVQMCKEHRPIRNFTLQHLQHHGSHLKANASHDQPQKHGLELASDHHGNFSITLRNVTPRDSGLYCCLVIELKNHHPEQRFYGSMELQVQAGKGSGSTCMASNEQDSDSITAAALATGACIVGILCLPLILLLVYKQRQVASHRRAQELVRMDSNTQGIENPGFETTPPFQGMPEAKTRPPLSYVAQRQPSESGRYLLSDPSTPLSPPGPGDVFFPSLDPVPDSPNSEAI
Test: Cell-Based Binding High-Content Assay For mVISTA (HC CBA mVISTA)
Details: read-out: HC CBA mVISTA IC50
Method in brief: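 This high-content binding assay uses HEK293T cells expressing murine VISTA, measuring displacement of 2 nM biotinylated peptide by fluorescent streptavidin imaging. IC50 values come from four-parameter logistic fitting.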

| SMILES | pIC50 |
| --- | --- |
| CCCCCCN1CC(=O)N[C@@H](Cc2ccc(O)cc2)C(=O)N[C@@H](CC(C)C)C(=O)NCC(=O)N[C@@H](CCCNC(=N)N)C(=O)N[C@@H](CC(C)C)C(=O)N[C@@H](CCCCC)C(=O)N2CCC[C@H]2C(=O)N[C@@H](C(C)C)C(=O)N2CCC[C@H]2C(=O)N[C@H](C(=O)NCC(N)=O)CSCC(=O)N[C@@H](Cc2ccccc2)C(=O)N[C@@H](Cc2ccc(O)cc2)C(=O)N[C@@H](CC(=O)O)C1=O [compound 1125] ({CH2CO}-FYD[NHexGly]YLGRL[Ahp(2)]PVPCG-NH2; thioether N-14) | 7.47 |
| CCCCCCN1CC(=O)N[C@@H](Cc2ccc(O)cc2)C(=O)N[C@@H](CCCC)C(=O)N[C@@H](CC(N)=O)C(=O)N[C@@H](CCCNC(=N)N)C(=O)N(C)[C@@H](CCCC)C(=O)N[C@@H](CCCCC)C(=O)N2CCC[C@H]2C(=O)N[C@@H](C(C)C)C(=O)N[C@@H](CC(=O)O)C(=O)N[C@H](C(=O)N[C@@H](CCCCN)C(=O)N[C@@H](CC(N)=O)C(=O)O)CSCC(=O)N[C@@H](Cc2ccccc2)C(=O)N[C@@H](Cc2c[nH]c3ccccc23)C(=O)N[C@@H](CC(=O)O)C1=O [compound 1128] ({CH2CO}-FWD[NHexGly]Y[Nle]NR[NMeNle][Ahp(2)]PVDCKN-OH; thioether N-14) | 7.80 |
| CCCCCCN1CC(=O)N[C@@H](Cc2ccc(O)cc2)C(=O)N[C@@H](CCCC)C(=O)N[C@@H](CC(N)=O)C(=O)N[C@@H](CCCNC(=N)N)C(=O)N(C)[C@@H](CCCC)C(=O)N[C@@H](CCCCC)C(=O)N2CCC[C@H]2C(=O)N[C@@H](C(C)C)C(=O)N[C@@H](CC(=O)O)C(=O)N[C@H](C(=O)N[C@@H](CCCN)C(=O)N[C@@H](CC(N)=O)C(=O)O)CSCC(=O)N[C@@H](Cc2ccccc2)C(=O)N[C@@H](Cc2c[nH]c3ccccc23)C(=O)N[C@@H](CC(=O)O)C1=O [compound 1129] ({CH2CO}-FWD[NHexGly]Y[Nle]NR[NMeNle][Ahp(2)]PVDC[Orn]N-OH; thioether N-14) | 7.87 |
| CCCCCCN1CC(=O)N[C@@H](Cc2ccc(O)cc2)C(=O)N[C@@H](CCCC)C(=O)N[C@@H](CC(N)=O)C(=O)N[C@@H](CCCNC(=N)N)C(=O)N(C)[C@@H](CCCC)C(=O)N[C@@H](CCCCC)C(=O)N2CCC[C@H]2C(=O)N[C@@H](C(C)C)C(=O)N[C@@H](CC(=O)O)C(=O)N[C@H](C(=O)N[C@@H](CCCN)C(=O)N[C@@H](CCC(N)=O)C(=O)O)CSCC(=O)N[C@@H](Cc2ccccc2)C(=O)N[C@@H](Cc2c[nH]c3ccccc23)C(=O)N[C@@H](CC(=O)O)C1=O [compound 1130] ({CH2CO}-FWD[NHexGly]Y[Nle]NR[NMeNle][Ahp(2)]PVDC[Orn]Q-OH; thioether N-14) | 7.76 |
| CCCCCCN1CC(=O)N[C@@H](Cc2ccc(O)cc2)C(=O)N[C@@H](CCCC)C(=O)N[C@@H](CC(N)=O)C(=O)N[C@@H](CCCNC(=N)N)C(=O)N(C)[C@@H](CCCC)C(=O)N[C@@H](CCCCC)C(=O)N2CCC[C@H]2C(=O)N[C@@H](C(C)C)C(=O)N[C@@H](CC(=O)O)C(=O)N[C@H](C(=O)N[C@@H](CCN)C(=O)N[C@@H](CC(N)=O)C(=O)O)CSCC(=O)N[C@@H](Cc2ccccc2)C(=O)N[C@@H](Cc2c[nH]c3ccccc23)C(=O)N[C@@H](CC(=O)O)C1=O [compound 1131] ({CH2CO}-FWD[NHexGly]Y[Nle]NR[NMeNle][Ahp(2)]PVDC[Dab]N-OH; thioether N-14) | 7.64 |
| CCCCCCN1CC(=O)N[C@@H](Cc2ccc(O)cc2)C(=O)N[C@@H](CCCC)C(=O)N[C@@H](CC(N)=O)C(=O)N[C@@H](CCCNC(=N)N)C(=O)N(C)[C@@H](CCCC)C(=O)N[C@@H](CCCCC)C(=O)N2CCC[C@H]2C(=O)N[C@@H](C(C)C)C(=O)N[C@@H](CC(=O)O)C(=O)N[C@H](C(=O)N[C@@H](CCN)C(=O)N[C@@H](CCC(N)=O)C(=O)O)CSCC(=O)N[C@@H](Cc2ccccc2)C(=O)N[C@@H](Cc2c[nH]c3ccccc23)C(=O)N[C@@H](CC(=O)O)C1=O [compound 1132] ({CH2CO}-FWD[NHexGly]Y[Nle]NR[NMeNle][Ahp(2)]PVDC[Dab]Q-OH; thioether N-14) | 7.44 |
| CCCCCCN1CC(=O)N[C@@H](Cc2ccc(O)cc2)C(=O)N[C@@H](CCCC)C(=O)N[C@@H](CC(N)=O)C(=O)N[C@@H](CCCNC(=N)N)C(=O)N(C)[C@@H](CCCC)C(=O)N[C@@H](CCCCC)C(=O)N2CCC[C@H]2C(=O)N[C@@H](C(C)C)C(=O)N[C@@H](CC(=O)O)C(=O)N[C@H](C(=O)N[C@@H](CN)C(=O)N[C@@H](CC(N)=O)C(=O)O)CSCC(=O)N[C@@H](Cc2ccccc2)C(=O)N[C@@H](Cc2c[nH]c3ccccc23)C(=O)N[C@@H](CC(=O)O)C1=O [compound 1133] ({CH2CO}-FWD[NHexGly]Y[Nle]NR[NMeNle][Ahp(2)]PVDC[Dap]N-OH; thioether N-14) | 7.94 |
| CCCCCCN1CC(=O)N[C@@H](Cc2ccc(O)cc2)C(=O)N[C@@H](CCCC)C(=O)N[C@@H](CC(N)=O)C(=O)N[C@@H](CCCNC(=N)N)C(=O)N(C)[C@@H](CCCC)C(=O)N[C@@H](CCCCC)C(=O)N2CCC[C@H]2C(=O)N[C@@H](C(C)C)C(=O)N[C@@H](CC(=O)O)C(=O)N[C@H](C(=O)N[C@@H](CCN)C(=O)N[C@@H](CCC(N)=O)C(=O)O)CSCC(=O)N[C@@H](Cc2ccc3ccccc3c2)C(=O)N[C@@H](Cc2c[nH]c3ccccc23)C(=O)N[C@@H](CC(=O)O)C1=O [compound 1134] ({CH2CO}-[2Nal]WD[NHexGly]Y[Nle]NR[NMeNle][Ahp(2)]PVDC[Dab]Q-OH; thioether N-14) | 7.86 |
| CCCCCCN1CC(=O)N[C@@H](Cc2ccc(O)cc2)C(=O)N[C@@H](CCCC)C(=O)N[C@@H](CC(N)=O)C(=O)N[C@@H](CCCNC(=N)N)C(=O)N(C)[C@@H](CCCC)C(=O)N[C@@H](CCCCC)C(=O)N2CCC[C@H]2C(=O)N[C@@H](C(C)C)C(=O)N[C@@H](CC(=O)O)C(=O)N[C@H](C(=O)N[C@@H](CN)C(=O)N[C@@H](CCC(N)=O)C(=O)O)CSCC(=O)N[C@@H](Cc2ccc3ccccc3c2)C(=O)N[C@@H](Cc2c[nH]c3ccccc23)C(=O)N[C@@H](CC(=O)O)C1=O [compound 1135] ({CH2CO}-[2Nal]WD[NHexGly]Y[Nle]NR[NMeNle][Ahp(2)]PVDC[Dap]Q-OH; thioether N-14) | 7.41 |
| CCCCCCN1CC(=O)N[C@@H](Cc2ccc(O)cc2)C(=O)N[C@@H](CCCC)C(=O)N[C@@H](CC(N)=O)C(=O)N[C@@H](CCCNC(=N)N)C(=O)N(C)[C@@H](CCCC)C(=O)N[C@@H](CCCCC)C(=O)N2CCC[C@H]2C(=O)N[C@@H](C(C)C)C(=O)N[C@@H](CC(=O)O)C(=O)N[C@H](C(=O)N[C@@H](CN)C(=O)N[C@@H](CC(N)=O)C(=O)O)CSCC(=O)N[C@@H](Cc2ccc3ccccc3c2)C(=O)N[C@@H](Cc2c[nH]c3ccccc23)C(=O)N[C@@H](CC(=O)O)C1=O [compound 1136] ({CH2CO}-[2Nal]WD[NHexGly]Y[Nle]NR[NMeNle][Ahp(2)]PVDC[Dap]N-OH; thioether N-14) | 8.02 |
| CCCCCCN1CC(=O)N[C@@H](Cc2ccc(O)cc2)C(=O)N[C@@H](CCCC)C(=O)N[C@@H](CC(N)=O)C(=O)N[C@@H](CCCNC(=N)N)C(=O)N(C)[C@@H](CCCC)C(=O)N[C@@H](CCCCC)C(=O)N2CCC[C@H]2C(=O)N[C@@H](C(C)C)C(=O)N[C@@H](CC(=O)O)C(=O)N[C@H](C(=O)N[C@@H](CCCCN)C(=O)N[C@@H](CCC(N)=O)C(=O)O)CSCC(=O)N[C@@H](Cc2ccc3ccccc3c2)C(=O)N[C@@H](Cc2c[nH]c3ccccc23)C(=O)N[C@@H](CC(=O)O)C1=O [compound 1137] ({CH2CO}-[2Nal]WD[NHexGly]Y[Nle]NR[NMeNle][Ahp(2)]PVDCKQ-OH; thioether N-14) | 7.65 |
| CCCCCCN1CC(=O)N[C@@H](Cc2ccc(O)cc2)C(=O)N[C@@H](CCCC)C(=O)N[C@@H](CC(N)=O)C(=O)N[C@@H](CCCNC(=N)N)C(=O)N(C)[C@@H](CCCC)C(=O)N[C@@H](CCCCC)C(=O)N2CCC[C@H]2C(=O)N[C@@H](C(C)C)C(=O)N[C@@H](CC(=O)O)C(=O)N[C@H](C(=O)N[C@@H](CCCN)C(=O)N[C@@H](CC(N)=O)C(=O)O)CSCC(=O)N[C@@H](Cc2ccc3ccccc3c2)C(=O)N[C@@H](Cc2c[nH]c3ccccc23)C(=O)N[C@@H](CC(=O)O)C1=O [compound 1139] ({CH2CO}-[2Nal]WD[NHexGly]Y[Nle]NR[NMeNle][Ahp(2)]PVDC[Orn]N-OH; thioether N-14) | 7.44 |
| CCCCCCN1CC(=O)N[C@@H](Cc2ccc(O)cc2)C(=O)N[C@@H](CCCC)C(=O)N[C@@H](CC(N)=O)C(=O)N[C@@H](CCCNC(=N)N)C(=O)N(C)[C@@H](CCCC)C(=O)N[C@@H](CCCCC)C(=O)N2CCC[C@H]2C(=O)N[C@@H](C(C)C)C(=O)N[C@@H](CC(=O)O)C(=O)N[C@H](C(=O)N[C@@H](CCCN)C(=O)N[C@@H](CCC(N)=O)C(=O)O)CSCC(=O)N[C@@H](Cc2ccc3ccccc3c2)C(=O)N[C@@H](Cc2c[nH]c3ccccc23)C(=O)N[C@@H](CC(=O)O)C1=O [compound 1140] ({CH2CO}-[2Nal]WD[NHexGly]Y[Nle]NR[NMeNle][Ahp(2)]PVDC[Orn]Q-OH; thioether N-14) | 7.72 |
| CCCCCCN1CC(=O)N[C@@H](Cc2ccc(O)cc2)C(=O)N[C@@H](CCCC)C(=O)N[C@@H](CC(N)=O)C(=O)N[C@@H](CCCNC(=N)N)C(=O)N(C)[C@@H](CCCC)C(=O)N[C@@H](CCCCC)C(=O)N(C)[C@@H](C)C(=O)N[C@@H](C(C)C)C(=O)N[C@@H](CO)C(=O)N[C@H](C(=O)NCC(N)=O)CSCC(=O)N[C@@H](Cc2ccccc2)C(=O)N[C@@H](Cc2c[nH]c3ccccc23)C(=O)N[C@@H](CC(=O)O)C1=O [compound 1143] ({CH2CO}-FWD[NHexGly]Y[Nle]NR[NMeNle][Ahp(2)][NMeA]VSCG-NH2; thioether N-14) | 7.75 |
